Reference: ChEMBL document CHEMBL6134853, “Design, Synthesis, and Biological Evaluation of Pyrrolo[1,2-a]quinoxalin-4(5H)-one Derivatives as Potent and Orally Available Noncovalent Bruton's Tyrosine Kinase (BTK) Inhibitors” (J Med Chem, 2025)

Experiments:
[1] = Toxicity in BALB/c mouse xenografted with human U-937 cells assessed as change in body weight at 50 to 100 mg/kg, po administered once a day for 14 days; format: organism-based; details: in vivo, 336 h, dose 50-100 mg/kg, time 14 day
[2] = biological target: Tyrosine-protein kinase BTK (Homo sapiens, UniProt Q06187); assay: Inhibition of BTK phosphorylation at Y223 residue in anti-IgM induced human U-937 cells preincubated with compound for 4 hrs followed by anti-IgM induction and measured after 15 mins by Western blot analysis; format: cell-based; details: dose <= 1.0 µM, time 255.0 min
[3] = biological target: T1, 1-phosphatidylinositol 4,5-bisphosphate phosphodiesterase gamma-2 (Homo sapiens) (UniProt P16885); assay: Inhibition of PLCgamma2 phosphorylation at Y1217 residue in anti-IgM induced human Ramos cells preincubated with compound for 4 hrs followed by anti-IgM induction and measured after 15 mins by Western blot analysis; format: cell-based; details: dose <= 1.0 µM, time […]
T1 sequence (whole entry): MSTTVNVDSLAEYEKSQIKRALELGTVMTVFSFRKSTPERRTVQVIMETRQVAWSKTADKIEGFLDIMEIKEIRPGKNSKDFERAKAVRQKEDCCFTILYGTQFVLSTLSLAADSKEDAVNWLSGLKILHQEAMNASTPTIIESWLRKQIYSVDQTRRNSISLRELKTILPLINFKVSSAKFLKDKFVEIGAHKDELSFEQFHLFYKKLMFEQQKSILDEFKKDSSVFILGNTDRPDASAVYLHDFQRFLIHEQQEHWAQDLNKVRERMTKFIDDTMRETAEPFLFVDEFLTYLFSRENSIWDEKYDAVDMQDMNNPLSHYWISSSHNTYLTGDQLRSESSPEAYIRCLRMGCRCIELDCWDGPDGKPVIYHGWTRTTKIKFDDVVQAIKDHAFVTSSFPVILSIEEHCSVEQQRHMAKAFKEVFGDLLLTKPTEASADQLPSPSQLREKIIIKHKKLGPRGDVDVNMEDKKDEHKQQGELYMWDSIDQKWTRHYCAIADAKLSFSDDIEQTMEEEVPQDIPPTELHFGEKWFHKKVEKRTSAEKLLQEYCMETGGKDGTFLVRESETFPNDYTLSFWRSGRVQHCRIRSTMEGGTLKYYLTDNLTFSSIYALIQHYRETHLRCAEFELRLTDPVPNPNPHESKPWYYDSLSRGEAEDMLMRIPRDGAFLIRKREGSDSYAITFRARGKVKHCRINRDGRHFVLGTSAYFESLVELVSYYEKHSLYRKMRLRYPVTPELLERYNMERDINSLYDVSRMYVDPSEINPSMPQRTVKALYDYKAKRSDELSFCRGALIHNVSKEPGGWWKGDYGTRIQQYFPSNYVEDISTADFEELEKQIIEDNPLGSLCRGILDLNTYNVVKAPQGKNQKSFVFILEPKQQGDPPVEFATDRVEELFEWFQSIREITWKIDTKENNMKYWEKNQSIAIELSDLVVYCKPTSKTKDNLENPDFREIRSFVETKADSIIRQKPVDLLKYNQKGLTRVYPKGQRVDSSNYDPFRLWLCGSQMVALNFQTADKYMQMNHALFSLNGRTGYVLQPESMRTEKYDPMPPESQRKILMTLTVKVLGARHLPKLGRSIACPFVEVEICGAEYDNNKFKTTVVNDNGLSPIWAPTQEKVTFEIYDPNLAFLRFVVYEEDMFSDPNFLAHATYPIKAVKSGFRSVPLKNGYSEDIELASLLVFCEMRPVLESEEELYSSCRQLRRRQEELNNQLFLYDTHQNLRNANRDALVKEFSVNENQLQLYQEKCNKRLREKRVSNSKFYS

[4] = Toxicity in BALB/c mouse xenografted with human U-937 cells assessed as parenchymal injury in kidney at 50 to 100 mg/kg, po administered once a day for 14 days by H and E staining based analysis; format: organism-based; details: in vivo, 336 h, dose 50-100 mg/kg, time 14 day
[5] = AUC (0 to 5 hrs) in male Sprague-Dawley rat at 10 mg/kg, po measured up to 5 hrs by LC-MS/MS analysis; format: ADME, organism-based; details: in vivo
U-937 [6] = assay: Antiproliferative activity against human U-937 cells expressing BTK assessed as inhibition of cell proliferation incubated for 48 hrs by CCK-8 assay; format: functional, cell-based; details: U-937, 48 h
[7] = Toxicity in BALB/c mouse xenografted with human U-937 cells assessed as inflammatory infiltration in lung at 50 to 100 mg/kg, po administered once a day for 14 days by H and E staining based analysis; format: organism-based; details: in vivo, 336 h, dose 50-100 mg/kg, time 14 day
[8] = Toxicity in BALB/c mouse xenografted with human U-937 cells assessed as inflammatory infiltration in liver at 50 to 100 mg/kg, po administered once a day for 14 days by H and E staining based analysis; format: organism-based; details: in vivo, 336 h, dose 50-100 mg/kg, time 14 day
[9] = Toxicity in BALB/c mouse xenografted with human U-937 cells assessed as inflammatory infiltration in heart at 50 to 100 mg/kg, po administered once a day for 14 days by H and E staining based analysis; format: organism-based; details: in vivo, 336 h, dose 50-100 mg/kg, time 14 day
[10] = Toxicity in BALB/c mouse xenografted with human U-937 cells assessed as parenchymal injury in spleen at 50 to 100 mg/kg, po administered once a day for 14 days by H and E staining based analysis; format: organism-based; details: in vivo, 336 h, dose 50-100 mg/kg, time 14 day
U-937 [11] = assay: Induction of cell cycle arrest in human U-937 cells assessed as accumulation of cells at S-phase incubated for 2 days by PI staining based flow cytometry analysis; format: functional; details: dose 1-10 µM, time 2.0 day
[12] = AUC (0 to t) in male Sprague-Dawley rat at 10 mg/kg, po measured up to 24 hrs by LC-MS/MS analysis; format: ADME, organism-based; details: in vivo
[13] = Cmax in male Sprague-Dawley rat at 10 mg/kg, po measured up to 5 hrs by LC-MS/MS analysis; format: ADME, organism-based; details: in vivo
[14] = Toxicity in BALB/c mouse xenografted with human U-937 cells assessed as inflammatory infiltration in kidney at 50 to 100 mg/kg, po administered once a day for 14 days by H and E staining based analysis; format: organism-based; details: in vivo, 336 h, dose 50-100 mg/kg, time 14 day

Chain of Tyrosine-protein kinase BTK (Q06187 whole entry): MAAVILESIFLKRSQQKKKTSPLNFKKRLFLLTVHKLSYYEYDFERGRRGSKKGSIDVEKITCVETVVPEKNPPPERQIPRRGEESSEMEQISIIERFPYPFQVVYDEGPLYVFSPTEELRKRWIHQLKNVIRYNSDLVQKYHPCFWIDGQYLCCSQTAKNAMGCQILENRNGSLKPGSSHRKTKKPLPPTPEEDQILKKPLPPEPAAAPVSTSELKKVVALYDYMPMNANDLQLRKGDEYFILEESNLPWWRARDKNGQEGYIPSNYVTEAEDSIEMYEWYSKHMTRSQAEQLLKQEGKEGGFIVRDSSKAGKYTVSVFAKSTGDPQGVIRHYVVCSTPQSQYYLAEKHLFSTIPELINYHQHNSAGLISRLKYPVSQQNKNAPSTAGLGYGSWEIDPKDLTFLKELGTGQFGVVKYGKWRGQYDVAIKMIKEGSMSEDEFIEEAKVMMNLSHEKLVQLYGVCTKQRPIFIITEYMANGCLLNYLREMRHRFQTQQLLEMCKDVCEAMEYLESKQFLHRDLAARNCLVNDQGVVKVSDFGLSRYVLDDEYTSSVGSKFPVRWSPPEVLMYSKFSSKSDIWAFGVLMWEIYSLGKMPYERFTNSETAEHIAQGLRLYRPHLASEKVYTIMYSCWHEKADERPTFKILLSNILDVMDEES

inhibition [2]: Dose-dependent-effect
inhibition [3]: Dose-dependent-effect
AUC(0-t) at 5 h [5]: 116 ng·h/mL
IC50 (U-937 [6]): 7.9 µM
AUC(0-t) at 24 h [12]: 161 ng·h/mL
Cmax [13]: 62.4 ng/mL
SMILES: CC(C)(O)c1ccc2c(c1)[nH]c(=O)c1ccc(-c3cccc(-n4c(=O)[nH]c5c(F)cccc5c4=O)c3F)n12
Activity [1]: Non-toxic
Activity [4]: Non-toxic
Activity [7]: Non-toxic
Activity [8]: Non-toxic
Activity [9]: Non-toxic
Activity [10]: Non-toxic
Activity (U-937 [11]): Dose-dependent-effect
Activity [14]: Non-toxic
